How the values were obtained:
[1] = test system: thawed 2-cell stage embryos of heterologous inbred SPR2 mouse; assay: Individuals by embryo transfer after freeze-thaw and electroporation (Treatment Example 5); format: cell-based, Mus spretus
Procedure: 1. Up to 3 hours before TAKE, Y-27632-added mWM medium (Y-27632 final concentration 10 μM, an example of the “temporary treatment medium” of this example), Y-27632-free mWM medium (an example of “normal medium” of this example) were dropped into 35 mm Petri dishes by 5 drops, respectively, to prepare drops covered with paraffin oil.
2. Two-cell stage embryos were collected from the drops or thawed, placed in Y-27632-added mWM medium, and cultured for about 30 minutes to 1 hour (temporary treatment).
3. After that, TAKE was performed.
4. After TAKE, the embryos were placed in Y-27632-added mWM medium and cultured for about 30 minutes to 1 hour (temporary treatment). Then, the embryos were placed in Y-27632-free mWM medium and cultured at 37° C. under 5% CO2 and 5% O2 conditions until transplantation.
Next, the effect of the temporary treatment medium of this example on the heterologous inbred SPR2 mouse, which cannot obtain the individual by embryo transfer after freeze-thaw and electroporation, was measured.
In the heterologous inbred SPR2 mouse, the thawed 2-cell stage embryos that were cultured in the temporary treatment medium of this example for the specific period before and after electroporation were used, […], and 7 individuals were able to be obtained. […]

[2] = test system: C57BL/6J blastocysts; assay: Developmental efficiency of frozen embryo transfer (Treatment Example 18); format: cell-based, mouse; settings: C57BL/6J freeze-thawed blastocysts, 38 embryos transferred
Procedure: Specifically, in the blastocysts of C57BL/6J mice, a freeze-thaw manipulation was performed by using the above-mentioned temporary treatment medium by using Y-27632 or the normal medium as control. Further, an average of 20 blastocysts per recipient (MCH mouse) was transplanted into the uterus. The newborn was delivered by Caesarean section (CS), and the number of implantation marks and the number of newborns were confirmed. Weaning mice were suckled by foster parents, the number of weaning mice was confirmed, and the weaning survival rate was calculated. In addition, the embryo medium was used based on the mWM medium.

[3] = test system: NOD-scid mouse embryos; assay: Bbox1 and IL2rg DKO screening in NOD-scid mice (Treatment Example 14); format: cell-based
Procedure: Then, in the same manner as in Treatment Example 7 of Example 1, in the NOD-scid strain, which is another strain of a severe combined immunodeficiency mouse, genome editing of multiple genes was performed, and individuals were produced. Here, individuals in which both the mBBOX1 and mIL2RG genes of NOD-scid mice were knocked out were prepared by the same treatment method as the above-mentioned treatment example used for BALB/c nude.

[4] = test system: early embryos of immunodeficient mouse NOD-scid; assay: Genome editing efficiency of multiple targets (Treatment Example 19); format: cell-based; settings: Bbox1, IL2RG, 4 target sites
Procedure: Electroporation (genome editing) of high-concentration RNA-protein mixed with CRISPR-Cas9 at multiple sites (4 sites in total) of a plurality of genes in early embryos of immunodeficient mice, which are extremely difficult to manipulate and prepare, was performed, transplanted into the recipient's uterus, and the offspring were obtained.

[5] = test system: Wistar-Imamichi and WKY rat embryos; assay: Klotho (40 kbp) large deletion knockout rats by electroporation (Treatment Example 13); format: cell-based; settings: for large deletion (proportion of individuals) / large deletion (%): Klotho
Procedure: In the Wistar-Imamichi line, which are similar to the inbred line, and the inbred WKY line, when the Klotho gene (40 kbp), of which whole gene could not normally be deleted, were knocked out by electroporation, the temporarily treatment is processed as similar to Example 1 as described above. Specifically, before and after electroporation, 1 hour of temporary treatment, 24 hours of culture in the normal medium (waiting period), and 1 hour of temporary treatment were performed.

[6] = test system: inbred mouse B6J embryos; assay: Generation of Flox inbred mice (individuals) by one-step method, high concentration ssODN (Treatment Example 11); format: cell-based; settings: floxed MK2 1STEP (HIGH CONCENTRATION)
Procedure: Furthermore, in the same manner, the individual production is performed in an inbred mouse B6J strain by an electroporation method (1STEP method) by using a high concentration ssODN.

[7] = NOD-scid F0, Bbox1 and IL2rg, listed as temporary treatment medium
[8] = Wistar-Imamichi, HIGH CONCENTRATION
[9] = Wistar-Imamichi, 164 transferred embryos
[10] = Wistar-Imamichi, LOW CONCENTRATION

## C[C@@H](N)[C@H]1CC[C@H](C(=O)Nc2ccncc2)CC1 [Y-27632, trans-4-[(1R)-1-Aminoethyl]-N-4-pyrid inylcyclohexanecarboxamide]
[1]; SPR2 thawed 2-cell embryos, treated before and after electroporation, 17 2-cell embryos transplanted into the oviduct
  individuals obtained: 7
[1]; SPR2 thawed, electroporated, 16 blastocysts transplanted into the uterus 3.5 days after plug
  individuals obtained: 5
[2]
  Implantation mark: 13
  Weaning (number of weaning mice): 10
  Weaning survival rate: 100%
[2]; Caesarean section
  Pups (CS): 10
[3]; NOD-scid F0
  individuals mutated at Bbox1 Ex3 (chr. 2) (proportion): #U: unknown mutation (4/9) (4/9)
  individuals mutated at Il2rg (chr. X) Ex2 (proportion): #U: unknown mutation (4/9) (4/9)
  individuals mutated at Il2rg (chr. X) Ex3 (proportion): #U: unknown mutation (4/9) (4/9)
[3]; [7]
  individuals with mutations in one of the two genes (%): 66.7%
  individuals with mutations in one of the two genes (proportion): 6 out of 9 and (6/9)
[4]; 47 embryos transferred
  KO %: 57%
  Pups: 7
  Pups (KO): 4
[4]; 49 embryos transferred
  KO %: 100%
  Pups: 2 (2)
  Pups (KO): 2 (2)
[5]; WKY, high concentration, many pulses, 15 transferred embryos
  large deletion (proportion of individuals): 2/3
[5]; WKY, high concentration, many pulses, listed as +Y
  large deletion (%): (66%)
[5]; WKY, high concentration, many pulses, listed as Y
  large deletion (%): 66.6%
[5]; [8]
  KLOTHO LARGE DELETION HETERO %: 41.3%
  KLOTHO LARGE DELETION HOMO %: 23.2%
  NUMBER OF INDIVIDUALS, KLOTHO LARGE DELETION HETERO: 19/46
  NUMBER OF INDIVIDUALS, KLOTHO LARGE DELETION HOMO: 10/46
[5]; [9]
  large deletion (%): (63%)
  large deletion (proportion of individuals): 29/46
[5]; [10]
  KLOTHO LARGE DELETION HETERO %: 16.6%
  KLOTHO LARGE DELETION HOMO %: 0%
  NUMBER OF INDIVIDUALS, KLOTHO LARGE DELETION HETERO: 3/18
  NUMBER OF INDIVIDUALS, KLOTHO LARGE DELETION HOMO: 0/18
[6]
  Flox individuals %: 16.7%
  NUMBER OF FLOX INDIVIDUALS: 1/6

Reference: patent publication US20230220331A1, “TEMPORARY TREATMENT MEDIUM, TREATMENT KIT, EMBRYOGENESIS ARREST INHIBITOR, EMBRYOGENESIS ARREST INHIBITORY METHOD, DEVELOPMENTAL ENGINEERING PRODUCT PREPARATION METHOD, TRANSPLANTATION METHOD, THERAPEUTIC METHOD, AND DEVELOPMENTAL ENGINEERING PRODUCT” (priority 2020, published 2023)
